Values joined by “and” are separate entries in the source; they are usually repeats but may differ in a detail not shown here. Equal entries are not always repeated.
Experiments:
[1] = system: NFL and optic nerves (ON); experiment: Rat in vivo OHT model, electron microscopy of AP and DAV in NFL and optic nerve; settings: in vivo OHT eyes; for Autophagosomes (AP) in the NFL (FIG. 5M), Total / Degenerative autophagic vacuoles (DAV) in the NFL (FIG. 5N), Total: Total of 10 areas; for Autophagosomes (AP)/25 μm2 in the NFL (FIG. 5M), individual areas 1-10 / Degenerative autophagic vacuoles (DAV)/25 μm2 in the NFL (FIG. 5N), individual areas 1-10 / Autophagosomes (AP)/100 μm2 in the ON (FIG. 5Y), individual areas 1-10 / Degenerative autophagic vacuoles (DAV)/100 μm2 in the ON (FIG. 5Z), individual areas 1-10: single values
Method: (§1) Example 7. Rat in vivo OHT model induced by intracameral injection of microbeads—For induction of ocular hypertension (OHT) in vivo, sterile 6 μm polystyrene microbeads were injected into the anterior chamber of the left eye of each animal using a single-step, sclero-corneal tunnel approach with a 35G nanoneedle (FIG. 4A). […] After stabilization of elevated IOP, animals were randomly divided into 3 groups (non-treated OHT, AlloP injection, and ent-AlloP injection). AlloP and ent-AlloP were administered as a one-time intravitreal injection one week following bead injection. Non-treated OHT animals received sterile vehicle intravitreally. As a further control, vehicle was intravitreally injected 7 days after intracameral administration of 10 μl of PBS. Three weeks after bead injections, IOP was 26.7±3.7 mmHg in non-treated OHT eyes compared to 9.9±0.9 mmHg in control eyes.
Rat in vivo OHT model—8-week old male Sprague-Dawley rats were deeply anesthetized with an intraperitoneal injection of a mixture of medetomidine hydrochloride (Cat #133-17474, CAS. No 86347-15-1, Wako Pure Chemical Industries Ltd., Osaka, Japan, 0.15 mg/kg), midazolam (Cat #135-13791, CAS. No 58786-99-5, Wako Pure Chemical Industries Ltd., 2 mg/kg), and butorphanol tartrate (Cat #021-19001, CAS. No […], Wako Pure Chemical Industries Ltd., 2.5 mg/kg), and intraocular pressure was increased unilaterally to approximately 35 mmHg, by intracameral injection of polystyrene microbeads using a single-step, sclero-corneal tunnel approach with a 35G-gauge nanoneedle (#LNAN-3505LM, Saito Medical Instruments Inc., Tokyo, Japan) connected to 100 μl WPI Nanofil 100 microsyringe (World Precision Instruments, Inc., Sarasota, FL). Sterile 6 μm polystyrene microbeads in a 1×10^6 microbeads/ml solution (Molecular Probes, Eugene, OR, USA) were concentrated to obtain a 1×10^7 microbeads/ml solution. This solution was suspended in PBS. The microbeads suspended in PBS were aspirated into a 100 μl Hamilton microsyringe and injected into the anterior chamber of […] of each animal. 10 μl of the microbead suspension were injected without contacting the cornea or iris with the needle. After stabilization of the elevated IOP, animals were randomly divided into 3 groups (non-treated OHT, AlloP injection, and ent-AlloP injection). AlloP and ent-AlloP were dissolved in 20% w/v (2-Hydroxypropyl)-β-cyclodextrin (2HBCD) in saline solution at concentration of 0.05% (w/v) solution, and injected into the vitreous chamber in a total volume of 1 μl using a Hamilton syringe adapted with a 35 G-gauge nanoneedle 1 week after the beads were injected under halothane inhalation anesthesia. OHT animals (vehicle control) received sterile 1 μl 20% (w/v) 2HBCD with PBS. As a further control, 1 μl 20% (w/v) 2HBCD was intravitreally injected 7 days after intracameral injection with 10 μl of PBS. The number of animals used in each experiment is indicated in the corresponding method. […] Ocular hypertension was monitored preoperatively, and at 3 days, 1 week, 2 weeks or 3 weeks after the beads were injected. IOP was measured using a laboratory tonometer (TonoLab, Icare, Finland).
Electron Microscopy—Retinal specimens were trimmed to a smaller size, and ultrathin sections (75 nm) were cut with a diamond knife and suspended over formvar-coated slot grids (1×2 mm opening). The sections were stained with uranyl acetate and lead citrate and viewed in a transmission electron microscope (H-7650, Hitachi High-Technologies Corp., Tokyo, Japan). Numbers of AP and DAV inside NFLs and axons were determined as the sum in 10 different areas of 25 μm^2 each from each sample. The analysis was performed in three eyes per experimental condition.

LC3-II = experiment: Rat in vivo OHT model, Western blot of LC3-II; settings: in vivo OHT eyes, 3 weeks after microbead injection, relative units, control = 1.00; for LC3-II expression (FIG. 6B), individual experiments 1-4: single values
Method: as §1
Rat in vivo OHT model—8-week old male Sprague-Dawley rats were deeply anesthetized with an intraperitoneal injection of a mixture of medetomidine hydrochloride (Cat #133-17474, CAS. No 86347-15-1, Wako Pure Chemical Industries Ltd., Osaka, Japan, 0.15 mg/kg), midazolam (Cat #135-13791, CAS. No 58786-99-5, Wako Pure Chemical Industries Ltd., 2 mg/kg), and butorphanol tartrate (Cat #021-19001, CAS. No […], Wako Pure Chemical Industries Ltd., 2.5 mg/kg), and intraocular pressure was increased unilaterally to approximately 35 mmHg, by intracameral injection of polystyrene microbeads using a single-step, sclero-corneal tunnel approach with a 35G-gauge nanoneedle (#LNAN-3505LM, Saito Medical Instruments Inc., Tokyo, Japan) connected to 100 μl WPI Nanofil 100 microsyringe (World Precision Instruments, Inc., Sarasota, FL). Sterile 6 μm polystyrene microbeads in a 1×10^6 microbeads/ml solution (Molecular Probes, Eugene, OR, USA) were concentrated to obtain a 1×10^7 microbeads/ml solution. […] Ocular hypertension was monitored preoperatively, and at 3 days, 1 week, 2 weeks or 3 weeks after the beads were injected. IOP was measured using a laboratory tonometer (TonoLab, Icare, Finland). […]

[2] = system: mouse model of Niemann-Pick Type C disease; settings: cited from earlier work
[3] = system: primary astrocyte cultures; settings: cited from earlier work

Structure (SMILES) | Degenerative autophagic vacuoles (DAV)/25 μm2 in the NFL (FIG. 5N), Average ([1]; intravitreal, Average of 10) | Autophagosomes (AP) in the NFL (FIG. 5M), Total ([1]; intravitreal) | Degenerative autophagic vacuoles (DAV) in the NFL (FIG. 5N), Total ([1]; intravitreal) | Autophagosomes (AP)/25 μm2 in the NFL (FIG. 5M), individual areas 1-10 ([1]; intravitreal) | Degenerative autophagic vacuoles (DAV)/25 μm2 in the NFL (FIG. 5N), individual areas 1-10 ([1]; intravitreal) | Autophagosomes (AP)/100 μm2 in the ON (FIG. 5Y), Average ([1]; optic nerve, Average of 10) | Degenerative autophagic vacuoles (DAV)/100 μm2 in the ON (FIG. 5Z), Average ([1]; optic nerve, Average of 10) | Autophagosomes (AP)/100 μm2 in the ON (FIG. 5Y), individual areas 1-10 ([1]; optic nerve) | Degenerative autophagic vacuoles (DAV)/100 μm2 in the ON (FIG. 5Z), individual areas 1-10 ([1]; optic nerve) | LC3-II expression (FIG. 6B), Average (LC3-II; Average of 4) | LC3-II expression (FIG. 6B), individual experiments 1-4 (LC3-II) | autophagy [2] | autophagy [3]
CC(=O)[C@H]1CC[C@H]2[C@@H]3CC[C@H]4C[C@H](O)CC[C@]4(C)[C@H]3CC[C@]12C [AlloP, allopregnanolone] | 0.5 /25 μm2 | 12 | 5 | 2 /25 μm2 (2×) and 1 /25 μm2 (8×) | 0 /25 μm2 (7×) and 2 /25 μm2 (2×) and 1 /25 μm2 | 1.1 /100 μm2 | 0.0 /100 μm2 | 1 /100 μm2 (9×) and 2 /100 μm2 | 0 /100 μm2 | 3.00 | 2.73 and 3.32 and 2.82 and 3.11 | activate autophagy | activate autophagy
CC(=O)[C@@H]1CC[C@@H]2[C@H]3CC[C@@H]4C[C@@H](O)CC[C@@]4(C)[C@@H]3CC[C@]21C [ent-AlloP, ent-allopregnanolone] |  | 1 | 22 | 0 /25 μm2 (9×) and 1 /25 μm2 | 1 /25 μm2 and 2 /25 μm2 (5×) and 4 /25 μm2 (2×) and 3 /25 μm2 and 0 /25 μm2 |  |  | 0 /100 μm2 (9×) and 1 /100 μm2 | 0 /100 μm2 and 1 /100 μm2 (8×) and 2 /100 μm2 |  | 4.96 and 4.97 and 4.27 and 5.04 |  | 

Reference: patent publication US20240041898A9, “NEUROSTEROIDS AND ENANTIOMERS THEREOF FOR THE PREVENTION AND TREATMENT OF NEURODEGENERATIVE CONDITIONS” (priority 2019, published 2024)
